The text below walks through data of paper PMC7818921, “Synthesis and biological evaluation of heterocyclic 1,2,4-triazole scaffolds as promising pharmacological agents” (BMC Chemistry, 2021).

Values after ≈ are worked out from the molar mass of the structure shown.

For one data set, the target named is Jack Bean Urease (Canavalia ensiformis, UniProt P07374). Put plainly: biochemical.
Chain of Jack Bean Urease (P07374 whole entry, looked up): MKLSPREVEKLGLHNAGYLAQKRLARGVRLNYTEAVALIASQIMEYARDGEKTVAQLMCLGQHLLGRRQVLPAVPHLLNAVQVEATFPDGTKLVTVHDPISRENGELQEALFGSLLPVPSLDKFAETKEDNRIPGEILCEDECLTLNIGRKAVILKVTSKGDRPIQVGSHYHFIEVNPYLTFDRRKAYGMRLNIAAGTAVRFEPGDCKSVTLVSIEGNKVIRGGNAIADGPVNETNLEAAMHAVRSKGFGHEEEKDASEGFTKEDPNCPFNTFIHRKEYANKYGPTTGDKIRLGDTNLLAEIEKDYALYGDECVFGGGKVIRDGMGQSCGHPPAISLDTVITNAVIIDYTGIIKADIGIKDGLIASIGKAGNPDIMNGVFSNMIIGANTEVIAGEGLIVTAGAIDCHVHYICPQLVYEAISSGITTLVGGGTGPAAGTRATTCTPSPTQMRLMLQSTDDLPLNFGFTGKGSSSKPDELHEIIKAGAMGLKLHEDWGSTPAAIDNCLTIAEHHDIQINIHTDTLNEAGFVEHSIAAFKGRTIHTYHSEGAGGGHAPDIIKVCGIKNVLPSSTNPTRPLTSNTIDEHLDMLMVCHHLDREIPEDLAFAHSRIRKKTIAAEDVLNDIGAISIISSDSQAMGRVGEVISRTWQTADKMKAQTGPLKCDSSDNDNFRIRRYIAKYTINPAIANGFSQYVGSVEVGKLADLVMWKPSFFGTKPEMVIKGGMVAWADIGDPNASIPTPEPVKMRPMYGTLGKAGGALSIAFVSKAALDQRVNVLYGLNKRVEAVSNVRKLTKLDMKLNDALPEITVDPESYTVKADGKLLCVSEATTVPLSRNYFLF
Settings: not given
The protocol: Urease inhibitory potential for each synthesisized compound (T1–T20) was evaluated using Jack Bean Urease by Indophenol method (Table 5, Figs. 9, 10, 11). 250 µl of jack bean urease (4U) was mixed with 250 µl of different synthesized test compounds and standard of different concentrations [dissolved in DMSO/H2O mixture (1:1 v/v)]. The mixture was pre-incubated for 1 h at 37 °C in test tubes. 2 ml of 100 mM phosphate buffer (pH 6.8) containing 500 mM urea and 0.002% phenol red as an indicator were added in sample test tubes after pre incubation and again incubated at room temperature. Absorbance of reaction mixture was recorded by ELISA at 570 nm. Ammonium carbonate increased the pH of phosphate buffer from 6.8 to 7.7 which was produced from urea by urease enzyme and the end peak was measured by the colour of phenol red indicator [16].
The percentage inhibition of urease enzyme was calculated by using following formula: I%=Acontrol-Asample/Acontrol×100,
where Acontrol is the absorbance of the control; Asample is the absorbance of the test compound.
Take `CCCCCCCCCCCCCCCc1nnc(S)n1N=Cc1ccc([N+](=O)[O-])cc1` [Compound T17]: the half-inhibitory concentration (IC50) is 125 µM, the inhibition at 25 µg/mL is 37.9%, the inhibition at 50 µg/mL stood at 42.4% and the inhibition at 75 µg/mL amounted to 57.6%. The inhibition at 100 µg/mL amounted to 71.4%.

Test system in the next data set: not given
Experiment: not given
Settings: not given
In the case of `CCCCCCCCCCCCCCCc1nnc(S)n1N=Cc1ccc([N+](=O)[O-])cc1` [Compound T17], the melting point lay in the range of 206 to 209 °C.

The subject of a further data set is Gram-positive (B. subtilis), Gram-negative (P. aeruginosa and E. coli) bacterial strains. Nature of the data set: Tube dilution method, MIC of antibacterial standards quoted without strain. The data set is classed as cell-based. The following applies: antibacterial standard, strain not given.
On to `CC1(C)S[C@@H]2[C@H](NC(=O)[C@H](N)c3ccc(O)cc3)C(=O)N2[C@H]1C(=O)O` [Amoxicillin, reference compound], for which the MIC turned out to be 17.1 µM.

For `O=C(O)c1cn(C2CC2)c2cc(N3CCNCC3)c(F)cc2c1=O` [Ciprofloxacin, reference compound], the MIC was found to be 18.1 µM.

The next data set has as its system HCT116 (human colon cancer cells). Nature of the data set: Anticancer evaluation, SRB assay. As to conditions: Homo sapiens, HCT-116; HCT116, 72 h, SRB; mean of at least triplicates. Format: cell-based. The protocol:
HCT116 (human colon cancer cells) were seeded at 2500 cells/well (96 well plate), allowed to attach overnight, exposed to the respective compounds for 72 h and subjected to SRB assay (570 nm). Data represent mean IC50 of at least triplicates. The compounds were all dissolved in DMSO as stock of 100 mg/ml. […] The highest concentration of each compound tested (100 μg/ml) contained only 0.1% DMSO.
In the case of `CCCCCCCCCCCCCCCc1nnc(S)n1N=Cc1ccc([N+](=O)[O-])cc1` [Compound T17], the 50% inhibitory concentration (IC50) is greater than 218 µM.

Test system in another data set: not listed separately
Nature of the data set: DPPH free radical scavenging activity. The following applies: DPPH, 25 µg/ml. On the procedure: In the DPPH free radical scavenging activity, compounds (T1–T20) were evaluated for their free radical scavenging activity with ascorbic acid as standard compound. The scavenging effect increased with the increasing concentrations of sample compounds. DPPH is relatively stable nitrogen centered free radical that easily accepts an electron or hydrogen radical to become a stable diamagnetic molecule. DPPH radicals react with suitable reducing agents as a result of which the electrons become paired off forming the corresponding hydrazine. The solution therefore loses colour stoichometrically depending on the number of electrons taken up. […] The sample solutions were incubated for 30 min at room temperature in dark place and after then absorbance was recorded against the blank solution at 517 nm. The relative percent of DPPH scavenging activity was calculated according to the following equation: I%=Acontrol-Asample/Acontrol×100,
where Acontrol is the absorbance of the control, Asample is the absorbance of the test compound.
With `CCCCCCCCCCCCCCCc1nnc(S)n1N=Cc1ccc([N+](=O)[O-])cc1` [Compound T17], the “% inhibition” value came out at 48.75%.

The data set is the same for the next values; noted with them: DPPH, 50 µg/ml.
For the compound `CCCCCCCCCCCCCCCc1nnc(S)n1N=Cc1ccc([N+](=O)[O-])cc1` [Compound T17], the “% inhibition” value is on record as 62.57%.

The same data set, now with this note: DPPH, 75 µg/ml.
On to `CCCCCCCCCCCCCCCc1nnc(S)n1N=Cc1ccc([N+](=O)[O-])cc1` [Compound T17], for which the “% inhibition” value turned out to be 78.16%.

Staying with this data set, now noted: DPPH, 100 µg/ml.
As for `CCCCCCCCCCCCCCCc1nnc(S)n1N=Cc1ccc([N+](=O)[O-])cc1` [Compound T17], the “% inhibition” value stood at 84.61%.

A further data set deals with Bacillus subtilis. Nature of the data set: In vitro antimicrobial screening, tube dilution method. The data set is classed as cell-based. As to conditions: B. substilis, Gram +ve; nutrient broth, 37 ± 1 °C, 24 h; read-out: Minimum inhibitory concentration. On the procedure:
(§1) The in vitro antimicrobial screening of the synthesized 1,2,4-triazole derivatives (T1–T20) in μM was determined against Gram-positive Bacillus subtilis, […], Gram-negative Escherichia coli bacterium and fungal strains Candida albicans and Aspergillus niger by tube dilution method using ciprofloxacin, amoxycillin (antibacterial) and fluconazole (antifungal) as reference drugs. DMSO was used to dissolve the reference and sample derivatives (T1–T20). Dilutions were prepared in nutrient broth (I.P.) for bacterial (incubated at 37 ± 1 °C for 24 h) and Sabouraud dextrose broth (I.P.) for fungal species (37 ± 1 °C for 48 h for C. albicans) and (25 ± 1 °C for 7 days for A. niger) (Table 3, Figs. 4 and 5).
For the compound `O=C(O)c1cn(C2CC2)c2cc(N3CCNCC3)c(F)cc2c1=O` [Ciprofloxacin, reference compound], the MIC amounted to 18.0 µM (≈ 5.96 µg/mL).

The same data set, now with this note: Bacillus subtilis; B. substilis, Gram +ve; nutrient broth, 37 ± 1 °C, 24 h; read-out: Minimum inhibitory concentration.
Take `CC1(C)S[C@@H]2[C@H](NC(=O)[C@H](N)c3ccc(O)cc3)C(=O)N2[C@H]1C(=O)O` [Amoxicillin, reference compound]: the MIC came to 17.1 µM (≈ 6.25 µg/mL).

Regarding `O=C(O)c1cn(C2CC2)c2cc(N3CCNCC3)c(F)cc2c1=O` [Ciprofloxacin, reference compound], the MIC worked out at 18 µM (≈ 5.96 µg/mL).

As to `CCCCCCCCCCCCCCCc1nnc(S)n1N=Cc1ccc([N+](=O)[O-])cc1` [Compound T17], the MIC is 54.3 µM (≈ 25 µg/mL).

The subject of the next data set is Escherichia coli. The data set is described as above. The data set is classed as cell-based. The following applies: Escherichia coli; E. coli, Gram −ve; nutrient broth, 37 ± 1 °C, 24 h; read-out: Minimum inhibitory concentration. On the procedure:
as §1
Take `CC1(C)S[C@@H]2[C@H](NC(=O)[C@H](N)c3ccc(O)cc3)C(=O)N2[C@H]1C(=O)O` [Amoxicillin, reference compound]: the MIC is 17.1 µM (≈ 6.25 µg/mL).

In the case of `O=C(O)c1cn(C2CC2)c2cc(N3CCNCC3)c(F)cc2c1=O` [Ciprofloxacin, reference compound], the MIC stood at 37.7 µM (≈ 12.5 µg/mL).

As for `CCCCCCCCCCCCCCCc1nnc(S)n1N=Cc1ccc([N+](=O)[O-])cc1` [Compound T17], the MIC came to 218 µM (≈ 100 µg/mL).

In the next data set the test system is Pseudomonas aeruginosa. Described as above. The data set is classed as cell-based. The following applies: P. aeruginosa, Gram −ve; nutrient broth, 37 ± 1 °C, 24 h; read-out: Minimum inhibitory concentration. The protocol:
as §1
On to `O=C(O)c1cn(C2CC2)c2cc(N3CCNCC3)c(F)cc2c1=O` [Ciprofloxacin, reference compound], for which the MIC was found to be 18.0 µM (≈ 5.96 µg/mL).

Staying with this data set, now noted: Pseudomonas aeruginosa; P. aeruginosa, Gram −ve; nutrient broth, 37 ± 1 °C, 24 h; read-out: Minimum inhibitory concentration.
Turning to `CC1(C)S[C@@H]2[C@H](NC(=O)[C@H](N)c3ccc(O)cc3)C(=O)N2[C@H]1C(=O)O` [Amoxicillin, reference compound], the MIC turned out to be 17.1 µM (≈ 6.25 µg/mL).

Consider `O=C(O)c1cn(C2CC2)c2cc(N3CCNCC3)c(F)cc2c1=O` [Ciprofloxacin, reference compound], for which the MIC turned out to be 18 µM (≈ 5.96 µg/mL).

`CCCCCCCCCCCCCCCc1nnc(S)n1N=Cc1ccc([N+](=O)[O-])cc1` [Compound T17]: the MIC is 218 µM (≈ 100 µg/mL).

The subject of a further data set is Candida albicans. Nature of the data set: In vitro antifungal screening, tube dilution method. Format: cell-based. The following applies: Candida albicans; C. albican; Sabouraud dextrose broth, 37 ± 1 °C, 48 h; read-out: Minimum inhibitory concentration. On the procedure: as §1
As for `CCCCCCCCCCCCCCCc1nnc(S)n1N=Cc1ccc([N+](=O)[O-])cc1` [Compound T17], the MIC is 109 µM (≈ 50 µg/mL).

The test system of a further data set is Aspergillus niger. Described as above. The data set is classed as cell-based. As to conditions: Aspergillus niger, 168 h; A. niger; Sabouraud dextrose broth, 25 ± 1 °C, 7 days; read-out: Minimum inhibitory concentration. On the procedure:
as §1
With `CCCCCCCCCCCCCCCc1nnc(S)n1N=Cc1ccc([N+](=O)[O-])cc1` [Compound T17], the MIC was 27.1 µM (≈ 12.5 µg/mL).
